These results are taken from patent US11053235B2, “Substituted 1,4-dihydropyrimidines for the treatment of HBV infection or HBV-induced diseases” (Janssen Sciences Ireland Unlimited Company, priority 2018, dated 2021).

SMILES strings stand for the structures. pEC50: −log10 of the molar value. Where only a bound is given, the exact number is not on record here.

In data set [1] the test system is HBV. The data set is described as follows: Anti-viral assay in HepG2.2.15 cells: HBV inhibitory activity (HBV DNA in culture medium by q-PCR). It is filed as cell-based. To be noted: Hepatitis B virus, HepG2.2.15, 144 h, HepG2.2.15 cells, 6 days treatment, HBV DNA in culture medium by q-PCR, highest concentration 10 uM; read-out: EC50. Put shortly: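 HBV DNA released into the medium was measured by q-PCR after 6-day compound exposure of HepG2.2.15 cells (40,000/well, 2% FBS, one mid-course medium change). Eight 3-fold dilutions, highest 10 uM; EC50 derived by curve fitting.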

Data set [2] is described as follows: Cytotoxicity determination in HepG2.2.15 cells (CCK-8). It is filed as cell-based. To be noted: human, 6 days treatment, CCK-8, highest concentration 100 uM. Summed up: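 CC50 derived from CCK-8 absorbance (450 nm, 630 nm reference) after 2.5 h incubation at 37 °C. Before that, HepG2.2.15 cells (5,000/well, 2% FBS) received an 8-point, 3-fold compound series topping at 100 uM for 6 days, with one mid-treatment medium change.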

By pEC50 is commonly meant the EC50 on a negative log10 scale, so that one unit is a factor of ten. By CC50 is commonly meant the concentration giving 50% cytotoxicity. Consider `CCOC(=O)C1=C(C2CCN(c3ncc(C)c(C(=O)O)n3)CC2)NC(c2nccs2)=NC1c1cccc(F)c1C` (single isomer, unassigned) [II-2-B, 2-(4-(5-(Ethoxycarbonyl)-6-(3-fluoro-2-methylphenyl)-2-(thiazol-2-yl)-3,6-dihydropyrimidin-4-yl)piperidin-1-yl)-5-methylpyrimidine-4-carboxylic Acid], for which the pEC50 in data set [1] is 8.08. Also, half-maximal cytotoxicity in data set [2] (CC50 at 6 days) was put at 12.4 µM.
On the same counts, the results for `CCOC(=O)C1=C(C2CCN(c3ncc(CC(=O)O)cn3)CC2)NC(c2nccs2)=NC1c1cccc(F)c1C` (single isomer, unassigned) [II-3-B, 2-(2-(4-(5-(ethoxycarbonyl)-6-(3-fluoro-2-methylphenyl)-2-(thiazol-2-yl)-3,6-dihydropyrimidin-4-yl)piperidin-1-yl)pyrimidin-5-yl)acetic Acid] are over 8.34 and 4.22 µM.
Consider `CCOC(=O)C1=C(C2CCN(c3ncc(C)c(C(=O)O)n3)CC2)NC(c2nccs2)=NC1c1ccc(F)cc1C` (single isomer, unassigned) [II-4-B, 2-(4-(5-(Ethoxycarbonyl)-6-(4-fluoro-2-methylphenyl)-2-(thiazol-2-yl)-3,6-dihydropyrimidin-4-yl)piperidin-1-yl)-5-methylpyrimidine-4-carboxylic Acid], for which the pEC50 in data set [1] was 7.72. The molecule further yielded a CC50 at 6 days in data set [2] of 16.3 µM.
On the same counts, the results for `COC(=O)C1=C(C2CCN(c3ncc(CC(=O)O)cn3)CC2)NC(c2nccs2)=NC1c1cccc(F)c1C` (single isomer, unassigned) [II-6-B, 2-(2-(4-(6-(3-Fluoro-2-methylphenyl)-5-(methoxycarbonyl)-2-(thiazol-2-yl)-3,6-dihydropyrimidin-4-yl)piperidin-1-yl)pyrimidin-5-yl)acetic Acid] are 8.24 and 5.42 µM.
On the same counts, the results for `COC(=O)C1=C(C2CCN(c3ncc(C)c(C(=O)O)n3)CC2)NC(c2nccs2)=NC1c1ccc(F)cc1C` (single isomer, unassigned) [II-7-B, 2-(4-(6-(4-fluoro-2-methylphenyl)-5-(methoxycarbonyl)-2-(thiazol-2-yl)-3,6-dihydropyrimidin-4-yl)piperidin-1-yl)-5-methylpyrimidine-4-carboxylic Acid] are 7.39 and 28.4 µM.
On the same counts, the results for `COC(=O)C1=C(C2CCN(c3ncc(C)c(C(=O)O)n3)CC2)NC(c2nccs2)=NC1c1cccc(F)c1Cl` (single isomer, unassigned) [II-8-B, 2-(4-(6-(2-Chloro-3-fluorophenyl)-5-(methoxycarbonyl)-2-(thiazol-2-yl)-3,6-dihydropyrimidin-4-yl)piperidin-1-yl)-5-methylpyrimidine-4-carboxylic Acid] are 8.09 and 19 µM.
As to `COC(=O)C1=C(C2CCN(c3ncc(CC(=O)O)cn3)CC2)NC(c2nccs2)=NC1c1cccc(F)c1Cl` (single isomer, unassigned) [II-9-B, 2-(2-(4-(6-(2-Chloro-3-fluorophenyl)-5-(methoxycarbonyl)-2-(thiazol-2-yl)-3,6-dihydropyrimidin-4-yl)piperidin-1-yl)pyrimidin-5-yl)acetic Acid], the negative-log EC50 (pEC50) in data set [1] is over 8.34. This molecule came in with a CC50 at 6 days in data set [2] of 4.9 µM.
On the same counts, the results for `COC(=O)C1=C(C2CCN(c3ncc(C(=O)O)s3)CC2)NC(c2nccs2)=NC1c1cccc(F)c1Cl` (single isomer, unassigned) [II-10-B, 2-(4-(6-(2-Chloro-3-fluorophenyl)-5-(methoxycarbonyl)-2-(thiazol-2-yl)-3,6-dihydropyrimidin-4-yl)piperidin-1-yl)thiazole-5-carboxylic Acid] are 8.04 and 17.2 µM.
With `COC(=O)C1=C(C2CCN(C(=O)c3cn[nH]c3)CC2)NC(c2nccs2)=NC1c1ccc(F)cc1Cl` (single isomer, unassigned) [II-11-X, Methyl 6-(1-(1H-pyrazole-4-carbonyl)piperidin-4-yl)-4-(2-chloro-4-fluorophenyl)-2-(thiazol-2-yl)-1,4-dihydropyrimidine-5-carboxylate], in data set [1], the pEC50 was 7.24. Moreover, in data set [2], half-maximal cytotoxicity (CC50 at 6 days) was put at 16.2 µM.
In the case of `COC(=O)C1=C(C2CCN(C(=O)c3cnn(C)c3)CC2)NC(c2nccs2)=NC1c1ccc(F)cc1Cl` (single isomer, unassigned) [II-12-B, Methyl 4-(2-chloro-4-fluorophenyl)-6-(1-(1-methyl-1H-pyrazole-4-carbonyl)piperidin-4-yl)-2-(thiazol-2-yl)-1,4-dihydropyrimidine-5-carboxylate], in data set [1], the pEC50 was 7.18. Also, in data set [2], the CC50 at 6 days was 25.5 µM.
On the same counts, the results for `COC(=O)C1=C(C2CCN(c3nccc(CC(=O)O)n3)CC2)NC(c2nccs2)=NC1c1ccc(F)cc1Cl` (single isomer, unassigned) [II-13-A, 2-(2-(4-(6-(2-chloro-4-fluorophenyl)-5-(methoxycarbonyl)-2-(thiazol-2-yl)-3,6-dihydropyrimidin-4-yl)piperidin-1-yl)pyrimidin-4-yl)acetate] are 6.72 and 24.4 µM.
On the same counts, the results for `COC(=O)C1=C(C2CCN(c3ncc(C)c(C(=O)O)n3)CC2)NC(c2nccs2)=NC1c1ccc(F)cc1Cl` (single isomer, unassigned) [II-14-A, 2-(4-(6-(2-Chloro-4-fluorophenyl)-5-(methoxycarbonyl)-2-(thiazol-2-yl)-3,6-dihydropyrimidin-4-yl)piperidin-1-yl)-5-methylpyrimidine-4-carboxylic Acid] are 8.09 and 32.1 µM.
On the same counts, the results for `COC(=O)C1=C(C2CCN(c3ncc(CC(=O)O)cn3)CC2)NC(c2nccs2)=NC1c1ccc(F)cc1Cl` (single isomer, unassigned) [II-15-A, 2-(2-(4-(6-(2-Chloro-4-fluorophenyl)-5-(methoxycarbonyl)-2-(thiazol-2-yl)-3,6-dihydropyrimidin-4-yl)piperidin-1-yl)pyrimidin-5-yl)acetic Acid] are 8.26 and 14 µM.
For `COC(=O)C1=C(C2CCN(c3ncc(C(=O)O)c(C)n3)CC2)NC(c2nccs2)=NC1c1ccc(F)cc1Cl` (single isomer, unassigned) [II-16-B, 2-(4-(6-(2-Chloro-4-fluorophenyl)-5-(methoxycarbonyl)-2-(thiazol-2-yl)-3,6-dihydropyrimidin-4-yl)piperidin-1-yl)-4-methylpyrimidine-5-carboxylic Acid], the pEC50 in data set [1] was 8.16. The same molecule came in with a CC50 at 6 days in data set [2] of 7.48 µM.
On the same counts, the results for `COC(=O)C1=C(C2CCN(c3ncc(C(=O)O)cn3)CC2)NC(c2nccs2)=NC1c1ccc(F)cc1Cl` (single isomer, unassigned) [II-17-B, 2-(4-(6-(2-chloro-4-fluorophenyl)-5-(methoxycarbonyl)-2-(thiazol-2-yl)-3,6-dihydropyrimidin-4-yl)piperidin-1-yl)pyrimidine-5-carboxylic Acid] are 7.85 and over 100 µM.
Regarding `COC(=O)C1=C(C2CCN(c3nc(C(=O)O)co3)CC2)NC(c2nccs2)=NC1c1ccc(F)cc1Cl` (single isomer, unassigned) [II-18-B, 2-(4-(6-(2-Chloro-4-fluorophenyl)-5-(methoxycarbonyl)-2-(thiazol-2-yl)-3,6-dihydropyrimidin-4-yl)piperidin-1-yl)oxazole-4-carboxylic Acid], in data set [1], the pEC50 was 7.05. The molecule also yielded a CC50 at 6 days in data set [2] of 70 µM.
On the same counts, the results for `COC(=O)C1=C(C2CCN(c3ncc(C(=O)O)s3)CC2)NC(c2nccs2)=NC1c1ccc(F)cc1Cl` (single isomer, unassigned) [II-19-A, 2-(4-(6-(2-Chloro-4-fluorophenyl)-5-(methoxycarbonyl)-2-(thiazol-2-yl)-3,6-dihydropyrimidin-4-yl)piperidin-1-yl)thiazole-5-carboxylic Acid] are 8.19 and 19.3 µM.
On to `CCOC(=O)C1=C(C2CCN(c3ncc(C)c(C(=O)O)n3)CC2)NC(c2nccs2)=NC1c1ccc(F)cc1Cl` (single isomer, unassigned) [II-20-B, 2-(4-(6-(2-Chloro-4-fluorophenyl)-5-(ethoxycarbonyl)-2-(thiazol-2-yl)-3,6-dihydropyrimidin-4-yl)piperidin-1-yl)-5-methylpyrimidine-4-carboxylic Acid], for which the pEC50 in data set [1] is 7.82. The molecule also showed a CC50 at 6 days in data set [2] of 16.8 µM.
On the same counts, the results for `CCOC(=O)C1=C(C2CCN(c3ncc(CC(=O)O)cn3)CC2)NC(c2nccs2)=NC1c1ccc(F)cc1Cl` (single isomer, unassigned) [II-21-B, 2-(2-(4-(6-(2-Chloro-4-fluorophenyl)-5-(ethoxycarbonyl)-2-(thiazol-2-yl)-3,6-dihydropyrimidin-4-yl)piperidin-1-yl)pyrimidin-5-yl)acetic Acid] are 8.21 and 7.11 µM.
With `CCOC(=O)C1=C(C2CCN(c3ncc(C)c(C(=O)O)n3)CC2)NC(c2nccs2)=NC1c1cccc(F)c1Cl` (single isomer, unassigned) [II-22-B, 2-(4-(6-(2-Chloro-3-fluorophenyl)-5-(ethoxycarbonyl)-2-(thiazol-2-yl)-3,6-dihydropyrimidin-4-yl)piperidin-1-yl)-5-methylpyrimidine-4-carboxylic Acid], in data set [1], the negative-log EC50 (pEC50) was 7.82. The molecule further displayed a CC50 at 6 days in data set [2] of 11.2 µM.
On the same counts, the results for `CCOC(=O)C1=C(C2CCN(c3ncc(CC(=O)O)cn3)CC2)NC(c2nccs2)=NC1c1cccc(F)c1Cl` (single isomer, unassigned) [II-23-B, 2-(2-(4-(6-(2-Chloro-3-fluorophenyl)-5-(ethoxycarbonyl)-2-(thiazol-2-yl)-3,6-dihydropyrimidin-4-yl)piperidin-1-yl)pyrimidin-5-yl)acetic Acid] are over 8.34 and 3.88 µM.
